Measurements reported in patent US20220106271A1, “2-BROMO-6-ALKOXYPHENYL-SUBSTITUTED PYRROLIN-2-ONES AND THEIR USE AS HERBICIDES” (Bayer Aktiengesellschaft, priority 2018, published 2022).

Key:
Format in all cases: in vivo
Abutylon threophrasti = test: Pre-emergence herbicidal effect, greenhouse pot test; conditions: scored visually after 3 weeks, dosage 320 g/ha printed only in the upper half of Table 2
Excerpt: (§1) 1. Pre-emergence herbicidal effect and crop plant compatibility Seeds of monocotyledonous and dicotyledonous weed plants and crop plants are laid out in sandy loam soil in wood-fibre pots and covered with soil. The compounds of the invention, formulated in the form of wettable powders (WP) or as emulsion concentrates (EC), are then applied to the surface of the covering soil as aqueous suspension or emulsion at a water application rate equating to 600 to 800 L/ha with addition of 0.2% wetting agent.
(§2) After the treatment, the pots are placed in a greenhouse and kept under good growth conditions for the trial plants. The damage to the test plants is scored visually after a test period of 3 weeks by comparison with untreated controls (herbicidal activity in percent (%): 100% activity=the plants have died, 0% activity=like control plants).

Alopecurus myosuroides [1] = test: as above; conditions: 320 g/ha, scored visually after 3 weeks, 100% = plants have died, 0% = like control plants
Excerpt: as §1, §2

Amaranthus retroflexus = test: as above; conditions: scored visually after 3 weeks, dosage 320 g/ha printed only in the upper half of Table 2
Excerpt: as §1, §2

Avena fatua [2] = test: as above; conditions: 320 g/ha, scored visually after 3 weeks, 100% = plants have died, 0% = like control plants
Excerpt: as §1, §2

Cyperus esculentus = test: as above; conditions: 320 g/ha, scored visually after 3 weeks, 100% = plants have died, 0% = like control plants
Excerpt: as §1, §2

Echinochloa crus-galli [3] = test: as above; conditions: 320 g/ha, scored visually after 3 weeks, 100% = plants have died, 0% = like control plants
Excerpt: as §1, §2

Hordeum murinum [4] = test: as above; conditions: scored visually after 3 weeks, dosage 320 g/ha printed only in the upper half of Table 2
Excerpt: as §1, §2

Lolium rigidum [5] = test: as above; conditions: 320 g/ha, scored visually after 3 weeks, 100% = plants have died, 0% = like control plants
Excerpt: as §1, §2

Polygonum convolvulus = test: as above; conditions: scored visually after 3 weeks, dosage 320 g/ha printed only in the upper half of Table 2
Excerpt: as §1, §2

Setaria viridis [6] = test: as above; conditions: 320 g/ha, scored visually after 3 weeks, 100% = plants have died, 0% = like control plants
Excerpt: as §1, §2

Stellaria media = test: as above; conditions: scored visually after 3 weeks, dosage 320 g/ha printed only in the upper half of Table 2
Excerpt: as §1, §2

Veronica persica = test: as above; conditions: scored visually after 3 weeks, dosage 320 g/ha printed only in the upper half of Table 2
Excerpt: as §1, §2

Viola tricolor = test: as above; conditions: scored visually after 3 weeks, dosage 320 g/ha printed only in the upper half of Table 2
Excerpt: as §1, §2

Alopecurus myosuroides [7] = test: Post-emergence herbicidal effect, greenhouse pot test; conditions: 80 g/ha, post-emergence at one-leaf stage, assessed visually after about 3 weeks; 100% = plants have died, 0% = like control plants
Procedure: (§3) Seeds of monocotyledonous and dicotyledonous weed and crop plants are laid out in sandy loam soil in wood-fibre pots, covered with soil and cultivated in a greenhouse under good growth conditions. 2 to 3 weeks after sowing, the test plants are treated at the one-leaf stage. The compounds of the invention, formulated in the form of wettable powders (WP) or as emulsion concentrates (EC), are then sprayed onto the green parts of the plants as aqueous suspension or emulsion at a water application rate equating to 600 to 800 L/ha with addition of 0.2% wetting agent. After the test plants have been left to stand in the greenhouse under optimal growth conditions for about 3 weeks, the action of the preparations is assessed visually in comparison to untreated controls (herbicidal action in percent (%): 100% activity=the plants have died, 0% activity=like control plants).

Avena fatua [8] = test: as above; conditions: 80 g/ha, post-emergence at one-leaf stage, assessed visually after about 3 weeks; 100% = plants have died, 0% = like control plants
Procedure: as §3

Echinochloa crus-galli [9] = test: as above; conditions: 80 g/ha, post-emergence at one-leaf stage, assessed visually after about 3 weeks; 100% = plants have died, 0% = like control plants
Procedure: as §3

Hordeum murinum [10] = test: as above; conditions: 80 g/ha, post-emergence at one-leaf stage, assessed visually after about 3 weeks; 100% = plants have died, 0% = like control plants
Procedure: as §3

Lolium rigidum [11] = test: as above; conditions: 80 g/ha, post-emergence at one-leaf stage, assessed visually after about 3 weeks; 100% = plants have died, 0% = like control plants
Procedure: as §3

Setaria viridis [12] = test: as above; conditions: 80 g/ha, post-emergence at one-leaf stage, assessed visually after about 3 weeks; 100% = plants have died, 0% = like control plants
Procedure: as §3

| Compound | Pre-emergence action ABUTH (herbicidal activity in percent) (Abutylon threophrasti) [%] | Pre-emergence action ALOMY (herbicidal activity in percent) (Alopecurus myosuroides [1]) [%] | Pre-emergence action AMARE (herbicidal activity in percent) (Amaranthus retroflexus) [%] | Pre-emergence action AVEFA (herbicidal activity in percent) (Avena fatua [2]) [%] | Pre-emergence action CYPES (herbicidal activity in percent) (Cyperus esculentus) [%] | Pre-emergence action ECHCG (herbicidal activity in percent) (Echinochloa crus-galli [3]) [%] | Pre-emergence action HORMU (herbicidal activity in percent) (Hordeum murinum [4]) [%] | Pre-emergence action LOLRI (herbicidal activity in percent) (Lolium rigidum [5]) [%] | Pre-emergence action POLCO (herbicidal activity in percent) (Polygonum convolvulus) [%] | Pre-emergence action SETVI (herbicidal activity in percent) (Setaria viridis [6]) [%] | Pre-emergence action STEME (herbicidal activity in percent) (Stellaria media) [%] | Pre-emergence action VERPE (herbicidal activity in percent) (Veronica persica) [%] | Pre-emergence action VIOTR (herbicidal activity in percent) (Viola tricolor) [%] | Post-emergence action ALOMY (herbicidal action in percent) (Alopecurus myosuroides [7]) [%] | Post-emergence action AVEFA (herbicidal action in percent) (Avena fatua [8]) [%] | Post-emergence action ECHCG (herbicidal action in percent) (Echinochloa crus-galli [9]) [%] | Post-emergence action HORMU (herbicidal action in percent) (Hordeum murinum [10]) [%] | Post-emergence action LOLRI (herbicidal action in percent) (Lolium rigidum [11]) [%] | Post-emergence action SETVI (herbicidal action in percent) (Setaria viridis [12]) [%] |
| --- | --- | --- | --- | --- | --- | --- | --- | --- | --- | --- | --- | --- | --- | --- | --- | --- | --- | --- | --- |
| CC#Cc1cc(Br)c(C2=C(O)C3(CCC(OC)CC3)NC2=O)c(OC)c1 (single isomer, unassigned) [Example 1.2] | 100 | 100 | 100 | 100 | 100 | 100 | 100 | 100 | 100 | 100 | 100 | 100 | 100 | 90 | 90 | 100 | 100 | 90 | 90 |
| CC#Cc1cc(Br)c(C2=C(OC(=O)OCC)C3(CCC(OC)CC3)NC2=O)c(OC)c1 (stereo not drawn) [Example 1.3, 3-[2-Bromo-6-methoxy-4-(prop-1-yn-1-yl)phenyl]-8-methoxy-2-oxo-1-azaspiro[4.5]dec-3-en-4-yl ethyl carbonate] | 100 | 100 | 100 | 100 | 100 | 100 | 100 | 100 | 100 | 100 | 100 | 100 | 100 | 90 | 90 | 100 | 100 | 100 | 90 |
| CC#Cc1cc(Br)c(C2=C(O)C3(CCC(OC)CC3)NC2=O)c(OC)c1 (single isomer, unassigned) [Example 1.1, 3-[2-Bromo-6-methoxy-4-(prop-1-yn-1-yl)phenyl]-4-hydroxy-8-methoxy-1-azaspiro[4.5]dec-3-en-2-one] | 100 | 100 | 100 | – | 100 | 100 | 100 | 100 | 100 | 100 | 100 | 100 | 100 | 90 | 100 | 100 | 100 | 100 | 90 |
| CC#Cc1cc(Br)c(C2=C(OC(=O)C(C)C)C3(CCC(OC)CC3)NC2=O)c(OC)c1 (stereo not drawn) [Example 1.4] | 100 | 100 | 100 | 100 | 100 | 100 | 100 | 100 | 100 | 100 | 100 | 100 | 100 | 90 | 90 | 90 | 100 | 100 | 90 |
